The target of assay [1] is JNK1 (Homo sapiens (Human), UniProt P45983). Description: In Vitro JNK1 Assay (TR-FRET, phosphorylation of GST-c-Jun). It counts as biochemical. Conditions: 0.2 nM active JNK1 kinase, 26.7 nM GST-c-Jun, 2 μM ATP, 30 min at room temperature. In outline: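 IC50 derived from percent inhibition across 10 serially diluted concentrations, with TR-FRET detection of phospho-c-Jun via an anti-phospho-c-Jun antibody after EDTA stop. Substrate was GST-c-Jun 1-79, reacted 30 min at room temperature in pH 7.0 HEPES buffer with MgCl2, DTT, vanadate and BSA.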
Sequence of JNK1 (P45983 whole entry): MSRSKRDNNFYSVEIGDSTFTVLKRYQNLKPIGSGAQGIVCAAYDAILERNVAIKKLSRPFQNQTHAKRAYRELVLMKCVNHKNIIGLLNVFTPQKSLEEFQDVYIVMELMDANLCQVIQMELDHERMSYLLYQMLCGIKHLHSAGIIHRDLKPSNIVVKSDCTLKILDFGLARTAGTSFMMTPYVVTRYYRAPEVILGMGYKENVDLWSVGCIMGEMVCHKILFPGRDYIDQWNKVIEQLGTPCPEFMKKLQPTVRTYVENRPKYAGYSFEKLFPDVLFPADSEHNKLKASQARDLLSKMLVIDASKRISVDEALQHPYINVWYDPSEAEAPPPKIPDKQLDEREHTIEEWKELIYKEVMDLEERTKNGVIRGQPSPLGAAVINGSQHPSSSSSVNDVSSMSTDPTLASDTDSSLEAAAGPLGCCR
(In TR-FRET formats the signal depends on donor and acceptor labels being close together.)

Assay [2] concerns phospho(Ser63)-c-jun in HK-2 cells. As to the kind of experiment: Cell-Based Assay for JNK Inhibitors (in-cell ELISA, phospho(Ser63)-c-jun after TNFα). The settings on record: HK-2 cells (human proximal tubule cells), 60 minutes compound, then 10 ng/mL TNFα for 30 minutes. In outline: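 HK-2 human proximal tubule cells were seeded at 40,000 cells/well, cultured 24 h, then serum-starved 16–24 h before TNFα stimulation with compound. Phospho(Ser63)-c-jun was quantified by in-cell ELISA on fixed, permeabilised cells, using a rabbit phospho-specific primary (overnight, 4 °C) and an HRP-linked anti-rabbit secondary. Absorbance was read at 450 nm.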

SMILES strings stand for the structures.

Regarding `CN(C)c1ccc(C(=O)NCc2cn(-c3ccccc3)c3cc(Cl)ccc3c2=O)cn1` [Example I-79, N-(7-Chloro-4-oxo-1-phenyl-1,4-dihydro-quinolin-3-ylmethyl)-6-dimethylamino-nicotinamide], in assay [1], the IC50 (in general, the concentration at which inhibition is half-maximal) was 55 nM. Also, a half-maximal effect in assay [2] (EC50) was put at 46000 nM.
In turn, `COC(=O)c1c(CNC(=O)c2ccc(OC)cc2)c(=O)c2ccc(Cl)cc2n1-c1ccccc1` [Example I-134, 7-Chloro-3-[(4-methoxybenzoylamino)-methyl]-4-oxo-1-phenyl-1,4-dihydro-quinoline-2-carboxylic acid methyl ester] had an IC50 in assay [1] of 7 nM. For the same compound, in assay [2], the EC50 (in general, the concentration needed to bring the measured effect to its halfway point) turned out to be 1900 nM.
The like results for `O=C(NCc1cn(-c2ccccc2)c2cc(Cl)ccc2c1=O)c1cnc(N2CCC(O)CC2)s1` [Example I-94, 2-(4-Hydroxypiperidin-1-yl)-thiazole-5-carboxylic acid (7-chloro-4-oxo-1-phenyl-1,4-dihydro-quinolin-3-ylmethyl)-amide] were, in that order, 36 nM and 14000 nM.
The like results for `O=C(NCc1cn(-c2ccccc2)c2cc(Cl)ccc2c1=O)c1ccc(N2CCCCCC2)nc1` [Example I-68, 6-Azepan-1-yl-N-(7-chloro-4-oxo-1-phenyl-1,4-dihydro-quinolin-3-ylmethyl)-nicotinamide] were, in that order, 21 nM and 17000 nM.
In assay [1], `COC(=O)c1c(CNC(=O)c2ccccc2)c(=O)c2ccccc2n1-c1ccccc1` [Example I-151, 3-(Benzoylamino-methyl)-4-oxo-1-phenyl-1,4-dihydro-quinoline-2-carboxylic acid methyl ester] came in with an IC50 of 39 nM. The EC50 in assay [2] turned out to be 14000 nM.
The like results for `CNC(=O)C1CCN(c2ccc(C(=O)NCc3cn(-c4ccccc4)c4cc(Cl)ccc4c3=O)cn2)CC1` [Example I-72, 3,4,5,6-Tetrahydro-2H-[1,2′]bipyridinyl-4,5′-dicarboxylic acid 5′-[(7-chloro-4-oxo-1-phenyl-1,4-dihydro-quinolin-3-ylmethyl)-amide]-4-methylamide] were, in that order, 27 nM and 100000 nM.
The compound `O=C(NCc1c(-c2ncco2)n(-c2ccccc2)c2ncccc2c1=O)c1ccc(N2CCOCC2)nc1` [Example I-10, 6-Morpholin-4-yl-N-(2-oxazol-2-yl-4-oxo-1-phenyl-1,4-dihydro-[1,8]naphthyridin-3-ylmethyl)-nicotinamide] returned an IC50 in assay [1] of 29 nM. In assay [2], this compound had an EC50 of 5200 nM.
Take `O=C(NCc1cn(-c2ccccc2)c2cc(Cl)ccc2c1=O)c1ccc(N2CCNCC2)nc1` [Example I-85, N-(7-Chloro-4-oxo-1-phenyl-1,4-dihydro-quinolin-3-ylmethyl)-6-piperazin-1-yl-nicotinamide]: 110 nM corresponded to half-maximal inhibition in assay [1] (IC50). The half-maximal effective concentration (EC50) in assay [2] stood at 72000 nM.
With `O=C(NCc1cn(-c2ccccc2F)c2cc(F)ccc2c1=O)c1ccc(N2CCOCC2)nc1` [Example I-108, N-[7-Fluoro-1-(2-fluoro-phenyl)-4-oxo-1,4-dihydro-quinolin-3-ylmethyl]-6-morpholin-4-yl-nicotinamide], in assay [1], it took 120 nM to reach half-maximal inhibition (IC50). Further, the midpoint of the response in assay [2], the EC50, lay at 47000 nM.
The like results for `COC(=O)c1c(CNC(=O)c2ccc(Cl)nc2)c(=O)c2ccc(F)cc2n1-c1ccccc1` [Example I-170, 3-{[(6-Chloro-pyridine-3-carbonyl)-amino]-methyl}-7-fluoro-4-oxo-1-phenyl-1,4-dihydroquinoline-2-carboxylic acid methyl ester] were, in that order, 10 nM and 44000 nM.
In assay [1], `COC(=O)c1c(CNC(=O)c2ccc(S(N)(=O)=O)cc2)c(=O)c2ccc(C(F)(F)F)nc2n1-c1ccccc1` [Example I-154, 4-Oxo-1-phenyl-3-[(4-sulfamoyl-benzoylamino)-methyl]-7-trifluoromethyl-1,4-dihydro-[1,8]naphthyridine-2-carboxylic acid methyl ester] had a half-maximal inhibitory concentration (IC50) of 26 nM. For the same compound, in assay [2], a half-maximal effect (EC50) was put at 9900 nM.

(Values after patent US8501732B2, “Aminomethyl quinolone compounds” (Hoffmann-La Roche Inc., priority 2011, dated 2013).)
